Reference: PubChem BioAssay AID330 (DTP/NCI, 2004)
Where “and” joins values, the source holds several entries; their conditions need not be identical. Equal entries are not always repeated. Toxic doses and inconclusive results are not listed. How the source made its calls: active means survival T/C of 150% or more; inactive means T/C below 125% in these data.

Test system: P388 leukemia ip, CD2F1 mice, survival T/C
Experiment: NCI In Vivo Anticancer Drug Screen. Data for tumor model P388 Leukemia (intraperitoneal) in CD2F1 (CDF1) mice
Details: endpoint: median survival time, higher = longer survival
In short: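 Mice carrying the transplanted tumor received test compound or vehicle. Survival was recorded in each group, and the value is the treated-group measurement divided by that of the vehicle-treated control group.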

[1] = dose: 100.0 mg/kg/injection, schedule: Q01DX009 (ip), vehicle: saline with Tween-80
[2] = dose: 100.0 mg/kg/injection, schedule: Q04DX003 (ip), vehicle: Klucel (hydroxypropylcellulose) (HPC)
[3] = dose: 200.0 mg/kg/injection, schedule: Q01DX009 (ip), vehicle: saline with Tween-80
[4] = dose: 50.0 mg/kg/injection, schedule: Q01DX009 (ip), vehicle: Klucel (hydroxypropylcellulose) (HPC)
[5] = dose: 100.0 mg/kg/injection, schedule: Q01DX001 (ip), vehicle: Klucel (hydroxypropylcellulose) (HPC)
[6] = dose: 12.5 mg/kg/injection, schedule: Q01DX009 (ip), vehicle: saline with Tween-80
[7] = dose: 25.0 mg/kg/injection, schedule: Q01DX009 (ip), vehicle: saline with Tween-80
[8] = dose: 37.5 mg/kg/injection, schedule: Q01DX009 (ip), vehicle: saline with Tween-80

Measured: T/C

CCCCCCCCCCCCCCCCCS(=O)S(=O)O (stereo not drawn)
inactive: dose: 50.0 mg/kg/injection, schedule: Q01DX009 (ip), vehicle: saline with Tween-80 113 % of control | [1] 118 % of control | [2] 100 % of control | [3] 122 % of control | dose: 200.0 mg/kg/injection, schedule: Q04DX003 (ip), vehicle: Klucel (hydroxypropylcellulose) (HPC) 109 % of control | dose: 400.0 mg/kg/injection, schedule: Q04DX003 (ip), vehicle: Klucel (hydroxypropylcellulose) (HPC) 113 % of control

O=C(O)c1cccc2c1SC(c1ccccc1)OC2=O (stereo not drawn)
inactive: dose: 50.0 mg/kg/injection, schedule: Q01DX005 (ip), vehicle: distilled water + alcohol 103 % of control | dose: 100.0 mg/kg/injection, schedule: Q01DX005 (ip), vehicle: distilled water + alcohol 99 % of control | dose: 200.0 mg/kg/injection, schedule: Q01DX005 (ip), vehicle: distilled water + alcohol 109 % of control

CCCCC(=O)NN(Cn1c(=S)sc2ccccc21)Cn1c(=S)sc2ccccc21
inactive: dose: 1.56 mg/kg/injection, schedule: Q01DX009 (ip), vehicle: Klucel (hydroxypropylcellulose) (HPC) 88 % of control | dose: 3.12 mg/kg/injection, schedule: Q01DX009 (ip), vehicle: Klucel (hydroxypropylcellulose) (HPC) 106 % of control and 88 % of control | dose: 6.25 mg/kg/injection, schedule: Q01DX009 (ip), vehicle: Klucel (hydroxypropylcellulose) (HPC) 100 % of control and 86 % of control and 93 % of control | dose: 12.5 mg/kg/injection, schedule: Q01DX009 (ip), vehicle: Klucel (hydroxypropylcellulose) (HPC) 90 % of control and 97 % of control | [4] 88 % of control and 91 % of control

c1ccc2c(c1)SP(P1Sc3ccccc3S1)S2
inactive: [4] 100 % of control | dose: 100.0 mg/kg/injection, schedule: Q01DX009 (ip), vehicle: Klucel (hydroxypropylcellulose) (HPC) 107 % of control

CC(=O)C(Cl)C(=O)c1c(-c2ccccc2)[nH]c2ccccc12 (stereo not drawn)
inactive: [5] 100 % of control | dose: 200.0 mg/kg/injection, schedule: Q01DX001 (ip), vehicle: Klucel (hydroxypropylcellulose) (HPC) 102 % of control | dose: 400.0 mg/kg/injection, schedule: Q01DX001 (ip), vehicle: Klucel (hydroxypropylcellulose) (HPC) 105 % of control

C1CC[C@@]2([C@]34CCCC[C@H]3O4)O[C@H]2C1
inactive: dose: 60.0 mg/kg/injection, schedule: Q01DX005 (ip), vehicle: Klucel (hydroxypropylcellulose) (HPC) 99 % of control | dose: 120.0 mg/kg/injection, schedule: Q01DX005 (ip), vehicle: Klucel (hydroxypropylcellulose) (HPC) 98 % of control | dose: 240.0 mg/kg/injection, schedule: Q01DX005 (ip), vehicle: Klucel (hydroxypropylcellulose) (HPC) 95 % of control and 96 % of control

CCOC(=O)/N=[N+](\[O-])c1ccc(Cl)cc1
inactive: [5] 100 % of control

CC(=O)Oc1c2ccsc2cc2sccc12
inactive: dose: 12.5 mg/kg/injection, schedule: Q04DX003 (ip), vehicle: Klucel (hydroxypropylcellulose) (HPC) 95 % of control | dose: 25.0 mg/kg/injection, schedule: Q04DX003 (ip), vehicle: Klucel (hydroxypropylcellulose) (HPC) 94 % of control | dose: 50.0 mg/kg/injection, schedule: Q04DX003 (ip), vehicle: Klucel (hydroxypropylcellulose) (HPC) 94 % of control | [2] 100 % of control

Nc1nc(=S)c2n[nH]nc2[nH]1
inactive: dose: 11.0 mg/kg/injection, schedule: Q01DX009 (ip), vehicle: saline with Tween-80 101 % of control and 105 % of control | [6] 104 % of control | dose: 16.5 mg/kg/injection, schedule: Q01DX009 (ip), vehicle: saline with Tween-80 98 % of control and 103 % of control | [7] 103 % of control and 91 % of control | [8] 98 % of control and 101 % of control

CC(=O)CC(=O)c1ccccc1.CC(=O)CC(=O)c1ccccc1.[Ni]
inactive: dose: 3.0 mg/kg/injection, schedule: Q01DX009 (ip), vehicle: saline with Tween-80 106 % of control | dose: 6.0 mg/kg/injection, schedule: Q01DX009 (ip), vehicle: saline with Tween-80 98 % of control | dose: 12.0 mg/kg/injection, schedule: Q01DX009 (ip), vehicle: saline with Tween-80 99 % of control | [6] 91 % of control | dose: 24.0 mg/kg/injection, schedule: Q01DX009 (ip), vehicle: saline with Tween-80 99 % of control

c1ccc2c(c1)Cc1c(-c3noc4c3Cc3ccccc3-4)noc1-2
inactive: dose: 60.0 mg/kg/injection, schedule: Q01DX005 (ip), vehicle: Klucel + Tween-80 100 % of control | dose: 120.0 mg/kg/injection, schedule: Q01DX005 (ip), vehicle: Klucel + Tween-80 90 % of control | dose: 240.0 mg/kg/injection, schedule: Q01DX005 (ip), vehicle: Klucel + Tween-80 91 % of control

COc1ccc(CCNC2=CNCC2)cc1OC
inactive: dose: 50.0 mg/kg/injection, schedule: Q01DX005 (ip), vehicle: saline 101 % of control | dose: 100.0 mg/kg/injection, schedule: Q01DX005 (ip), vehicle: saline 98 % of control | dose: 200.0 mg/kg/injection, schedule: Q01DX005 (ip), vehicle: saline 95 % of control

CC1=C(C)C2C3C(=O)NC(=O)C3C1C1C3C(=O)NC(=O)C3C21 (stereo not drawn)
inactive: dose: 60.0 mg/kg/injection, schedule: Q01DX005 (ip), vehicle: saline 101 % of control | dose: 120.0 mg/kg/injection, schedule: Q01DX005 (ip), vehicle: saline 101 % of control | dose: 240.0 mg/kg/injection, schedule: Q01DX005 (ip), vehicle: saline 100 % of control

O=C(O)c1ccc(Cc2ccc(C(=O)O)cc2)cc1 (tested in a mixture with another compound)
inactive: dose: 50.0 mg/kg/injection, schedule: Q01DX009 (ip), vehicle: saline 95 % of control | dose: 100.0 mg/kg/injection, schedule: Q01DX009 (ip), vehicle: saline 99 % of control | dose: 200.0 mg/kg/injection, schedule: Q01DX009 (ip), vehicle: saline 104 % of control

CP(=O)(OCCOCCOP(C)(=O)c1ccccc1)c1ccccc1 (stereo not drawn)
inactive: dose: 50.0 mg/kg/injection, schedule: Q01DX005 (ip), vehicle: Klucel (hydroxypropylcellulose) (HPC) 98 % of control | dose: 100.0 mg/kg/injection, schedule: Q01DX005 (ip), vehicle: Klucel (hydroxypropylcellulose) (HPC) 103 % of control | dose: 200.0 mg/kg/injection, schedule: Q01DX005 (ip), vehicle: Klucel (hydroxypropylcellulose) (HPC) 101 % of control

CSC(=S)N/N=C/c1ccccc1O
inactive: dose: 6.25 mg/kg/injection, schedule: Q01DX009 (ip), vehicle: saline with Tween-80 90 % of control | [6] 90 % of control | [7] 95 % of control

CC1=C(N(C)C)C(=O)N(c2ccccc2)CN1C
inactive: dose: 3.75 mg/kg/injection, schedule: Q01DX005 (ip), vehicle: saline with Tween-80 111 % of control | dose: 7.5 mg/kg/injection, schedule: Q01DX005 (ip), vehicle: saline with Tween-80 102 % of control | dose: 15.0 mg/kg/injection, schedule: Q01DX005 (ip), vehicle: saline with Tween-80 101 % of control and 103 % of control

COc1ccc2c(c1)CC(=CO)CC2=O.COc1ccc2c(c1)CC/C(=C/O)C2=O.[Cu]
inactive: [8] 100 % of control | dose: 75.0 mg/kg/injection, schedule: Q01DX009 (ip), vehicle: saline with Tween-80 90 % of control | [1] 95 % of control | dose: 150.0 mg/kg/injection, schedule: Q01DX009 (ip), vehicle: saline with Tween-80 109 % of control | [3] 123 % of control | dose: 200.0 mg/kg/injection, schedule: Q04DX003 (ip), vehicle: saline with Tween-80 91 % of control | dose: 400.0 mg/kg/injection, schedule: Q04DX003 (ip), vehicle: saline with Tween-80 91 % of control

CCCCCCCCCCCCCCCCCOC(=O)CCCCCCCCCCCCC
inactive: dose: 100.0 mg/kg/injection, schedule: Q01DX001 (ip), vehicle: other 100 % of control | dose: 200.0 mg/kg/injection, schedule: Q01DX001 (ip), vehicle: other 95 % of control | dose: 400.0 mg/kg/injection, schedule: Q01DX001 (ip), vehicle: other 90 % of control
